US20240391862A1, “(1,4,5-TRISUBSTITUTED-1H-PYRAZOL-3-YL)OXY-2-ALKOXY ALKYL ACIDS AND THEIR DERIVATIVES, THEIR SALTS AND THEIR USE AS HERBICIDAL AGENTS” (Bayer AKtiengesellschaft, priority 2021, published 2024)

Key:
[1] = tested on: TRZAS; assay: Post-emergence herbicidal effect and crop plant compatibility, greenhouse pot test; format: in vivo, Triticum aestivum; conditions: 20 g/ha, one-leaf stage, rated visually after about 3 weeks vs untreated controls; for percent crop injury (phytotoxicity) to wheat, post-emergence at 20 g/ha: Triticum aestivum, 504 h, read-out: Post-emergence effect at 20 g/ha against TRZAS in %
How it was run: (§1)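 Greenhouse pot test: weeds and crops sown in sandy loam, sprayed post-emergence at one-leaf stage (2–3 weeks after sowing) with WP or EC formulations plus 0.5% additive at 600 l/ha water, rates 20–320 g/ha. Visual rating about 3 weeks later versus untreated controls (100% = dead, 0% = as control).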

[2] = tested on: PHBPU; assay: Post-emergence herbicidal effect, greenhouse pot test; format: in vivo, Ipomoea purpurea; conditions: 320 g/ha; for pest or weed control at 320 g/ha: Ipomoea purpurea, 504 h, read-out: Post-emergence effect against PHBPU in %
How it was run: (§2)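 Greenhouse pot plants in sandy loam receive a one-leaf-stage spray at 20 to 320 g/ha. Activity is assessed visually around 3 weeks afterwards on a 0–100% scale, where 100% means the plants have died.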

[3] = tested on: SETVI; assay: as above; format: in vivo, Setaria viridis; conditions: 320 g/ha; for pest or weed control at 320 g/ha: Setaria viridis, 504 h, read-out: Post-emergence effect against SETVI in %
How it was run: as §2

[4] = tested on: VIOTR; assay: as above; format: in vivo, Viola tricolor
How it was run: as §2

[5] = tested on: AVEFA; assay: as above; format: in vivo, Avena fatua; conditions: visual rating about 3 weeks after treatment
How it was run: as §2

[6] = tested on: ALOMY; assay: as above; format: in vivo, Alopecurus myosuroides; conditions: visual rating about 3 weeks after treatment; for pest or weed control at 320 g/ha: Alopecurus myosuroides, 504 h, read-out: Post-emergence effect against ALOMY
How it was run: as §2

[7] = tested on: POLCO; assay: as above; format: in vivo, Fallopia convolvulus; conditions: for pest or weed control at 320 g/ha: Fallopia convolvulus, 504 h, read-out: Post-emergence effect against POLCO in %
How it was run: as §2

[8] = tested on: KCHSC; assay: as above; format: in vivo
How it was run: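 Greenhouse plants in sandy loam, sprayed post-emergence at the one-leaf stage (2–3 weeks after sowing) with WP or EC formulations in water plus 0.5% additive at 600 l/ha. Rates 20 to 320 g/ha. Activity rated visually after about 3 weeks against untreated controls (0% like control, 100% dead).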

[9] = tested on: AMARE; assay: as above; format: in vivo, Amaranthus retroflexus; conditions: visual rating about 3 weeks after treatment
How it was run: as §2

[10] = tested on: VERPE; assay: as above; format: in vivo, Veronica persica; conditions: 320 g/ha; for pest or weed control at 320 g/ha: Veronica persica, 504 h, read-out: Post-emergence effect against VERPE in %
How it was run: as §2

[11] = tested on: LOLRI; assay: as above; format: in vivo, Lolium rigidum; conditions: for pest or weed control at 320 g/ha: Lolium rigidum, 504 h, read-out: Post-emergence effect against LOLRI in %
How it was run: as §2

[12] = tested on: ABUTH; assay: as above; format: in vivo, Abutilon theophrasti; conditions: 320 g/ha, visual rating about 3 weeks after treatment; for pest or weed control at 320 g/ha: Abutilon theophrasti, 504 h, read-out: Post-emergence effect against ABUTH
How it was run: as §2

[13] = tested on: ZEAMX; assay: Post-emergence herbicidal effect and crop plant compatibility, greenhouse pot test; format: in vivo, Zea mays; conditions: one-leaf stage, rated visually after about 3 weeks vs untreated controls; for plant injury at 20 g/ha: read-out: Post-emergence effect at 20 g/ha against ZEAMX in %; for plant injury at 80 g/ha: read-out: Post-emergence effect at 80 g/ha against ZEAMX in %
How it was run: as §1

[14] = tested on: DIGSA; assay: Post-emergence herbicidal effect, greenhouse pot test; format: in vivo, Digitaria sanguinalis; conditions: 320 g/ha, visual rating about 3 weeks after treatment; for pest or weed control at 320 g/ha: Digitaria sanguinalis, 504 h, read-out: Post-emergence effect against DIGSA
How it was run: as §2

[15] = tested on: ECHCG; assay: as above; format: in vivo, Echinochloa crus-galli
How it was run: as §2

[16] = Viola tricolor, 504 h, 320 g/ha, read-out: Post-emergence effect against VIOTR in %
[17] = 504 h, 320 g/ha, read-out: Post-emergence effect against KCHSC in %
[18] = Amaranthus retroflexus, 504 h, 320 g/ha, read-out: Post-emergence effect against AMARE
[19] = Echinochloa crus-galli, 504 h, 320 g/ha, read-out: Post-emergence effect against ECHCG in %

## COC(=O)CCOC(=O)C(OC)Oc1nn(-c2ncccc2F)c(-c2ccc(F)nc2)c1C1CC1 (single isomer, unassigned) [Example I-88]
[1]
  Post-emergence effect at 20 g/ha against TRZAS in %: 20%
[2]
  Post-emergence effect against PHBPU in %: 90%
[3]
  Post-emergence effect against SETVI in %: 90%
[4]; 80 g/ha
  Post-emergence effect against VIOTR in %: 80%
[4]; 320 g/ha
  Post-emergence effect against VIOTR in %: 90%
[5]; 80 g/ha
  Post-emergence effect against AVEFA: 90%
[5]; 320 g/ha
  Post-emergence effect against AVEFA: 90%
[6]; 80 g/ha
  Post-emergence effect against ALOMY: 90%
[6]; 320 g/ha
  Post-emergence effect against ALOMY: 90%
[7]; 20 g/ha
  Post-emergence effect against POLCO in %: 80%
[7]; 80 g/ha
  Post-emergence effect against POLCO in %: 90%
[7]; 320 g/ha
  Post-emergence effect against POLCO in %: 90%
[8]; 80 g/ha
  Post-emergence effect against KCHSC in %: 80%
[8]; 320 g/ha
  Post-emergence effect against KCHSC in %: 80%
[9]; 320 g/ha
  Post-emergence effect against AMARE: 80%
[10]
  Post-emergence effect against VERPE in %: 90%
[11]; 80 g/ha
  Post-emergence effect against LOLRI in %: 90%
[11]; 320 g/ha
  Post-emergence effect against LOLRI in %: 90%
[12]
  Post-emergence effect against ABUTH: 80%
[13]; 20 g/ha
  Post-emergence effect at 20 g/ha against ZEAMX in %: 0%
[13]; 80 g/ha
  Post-emergence effect at 80 g/ha against ZEAMX in %: 0%
[13]; 320 g/ha
  Post-emergence effect at 320 g/ha against ZEAMX in %: 0%
[14]
  Post-emergence effect against DIGSA: 80%
[15]; 20 g/ha, visual rating about 3 weeks after treatment
  Post-emergence effect against ECHCG: 80%
[15]; 80 g/ha
  Post-emergence effect against ECHCG in %: 90%
[15]; 320 g/ha
  Post-emergence effect against ECHCG in %: 90%

## COC(Oc1nn(-c2cnccn2)c(-c2ccc(F)nc2)c1Cl)C(=O)O (stereo not shown) [Example I-42, {[4-Chloro-5-(6-fluoropyridin-3-yl)-1-(pyrazin-2-yl)-1H-pyrazol-3-yl]oxy}(methoxy)acetic acid]
[1]
  percent crop injury (phytotoxicity) to wheat, post-emergence at 20 g/ha: 0%
[2]
  pest or weed control at 320 g/ha: 80%
[3]
  pest or weed control at 320 g/ha: 80%
[4]; [16]
  pest or weed control at 320 g/ha: 90%
[6]; 320 g/ha
  pest or weed control at 320 g/ha: 90%
[7]; 320 g/ha
  pest or weed control at 320 g/ha: 80%
[8]; [17]
  pest or weed control at 320 g/ha: 90%
[9]; [18]
  pest or weed control at 320 g/ha: 80%
[10]
  pest or weed control at 320 g/ha: 80%
[11]; 320 g/ha
  pest or weed control at 320 g/ha: 90%
[12]
  pest or weed control at 320 g/ha: 80%
[13]; Zea mays, 504 h, 20 g/ha
  plant injury at 20 g/ha: 0%
[13]; Zea mays, 504 h, 80 g/ha
  plant injury at 80 g/ha: 0%
[13]; Zea mays, 504 h, 320 g/ha, read-out: Post-emergence effect at 320 g/ha against ZEAMX in %
  plant injury at 320 g/ha: 20%
[14]
  pest or weed control at 320 g/ha: 90%
[15]; [19]
  pest or weed control at 320 g/ha: 90%

## CCOC(=O)C(OC)Oc1nn(-c2cnccn2)c(-c2ccc(F)nc2)c1Cl (stereo not shown) [Example I-46]
[1]
  percent crop injury (phytotoxicity) to wheat, post-emergence at 20 g/ha: 0%
[2]
  pest or weed control at 320 g/ha: 90%
[3]
  pest or weed control at 320 g/ha: 90%
[4]; Viola tricolor, 504 h, 80 g/ha, read-out: Post-emergence effect against VIOTR in %
  pest or weed control at 80 g/ha: 90%
[4]; [16]
  pest or weed control at 320 g/ha: 90%
[6]; 320 g/ha
  pest or weed control at 320 g/ha: 90%
[7]; 320 g/ha
  pest or weed control at 320 g/ha: 80%
[8]; 504 h, 80 g/ha, read-out: Post-emergence effect against KCHSC in %
  pest or weed control at 80 g/ha: 80%
[8]; [17]
  pest or weed control at 320 g/ha: 90%
[9]; Amaranthus retroflexus, 504 h, 80 g/ha, read-out: Post-emergence effect against AMARE
  pest or weed control at 80 g/ha: 80%
[9]; [18]
  pest or weed control at 320 g/ha: 80%
[10]
  pest or weed control at 320 g/ha: 90%
[11]; 320 g/ha
  pest or weed control at 320 g/ha: 90%
[12]
  pest or weed control at 320 g/ha: 80%
[13]; Zea mays, 504 h, 20 g/ha
  plant injury at 20 g/ha: 0%
[13]; Zea mays, 504 h, 80 g/ha
  plant injury at 80 g/ha: 20%
[14]
  pest or weed control at 320 g/ha: 80%
[15]; Echinochloa crus-galli, 504 h, 80 g/ha, read-out: Post-emergence effect against ECHCG in %
  pest or weed control at 80 g/ha: 80%
[15]; [19]
  pest or weed control at 320 g/ha: 90%
